Where two headings read alike, the source gives them in different places.
What was measured:
Format in all cases: in vivo
[1] = test system: ryegrass, Italian (Italian ryegrass, Lolium multiflorum); assay: Test A greenhouse herbicide test, pre- and postemergence; details: Lolium multiflorum, 240 h; for pest or weed control at 125 g/ha: 125 g ai/ha
Outline: (§1)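 Seeds in loam–sand blend received a preemergence directed soil spray; plants at 2–10 cm, one- to two-leaf stage, received postemergence sprays. Compounds in a non-phytotoxic solvent with surfactant. After about 10 d in a greenhouse, injury rated visually versus untreated controls on a 0–100 scale (100 = complete control).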

[2] = test system: ragweed (common ragweed, Ambrosia elatior); assay: as above; details: Ambrosia artemisiifolia, 240 h; for pest or weed control at 125 g/ha: 125 g ai/ha; for pest or weed control at 500 g/ha: 500 g ai/ha, 0 to 100 scale
Outline: as §1

[3] = test system: barnyardgrass (Echinochloa crus-galli); assay: as above; details: Echinochloa crus-galli, 240 h; for pest or weed control at 125 g/ha: 125 g ai/ha; for pest or weed control at 500 g/ha: 500 g ai/ha, 0 to 100 scale
Outline: as §1

kochia (Kochia scoparia) [4] = assay: as above; details: Bassia scoparia, 240 h; for pest or weed control at 125 g/ha: 125 g ai/ha; for pest or weed control at 500 g/ha: 500 g ai/ha, 0 to 100 scale
Outline: as §1

[5] = test system: pigweed (Amaranthus retroflexus); assay: as above; details: Amaranthus retroflexus, 240 h; for pest or weed control at 125 g/ha: 125 g ai/ha; for pest or weed control at 500 g/ha: 500 g ai/ha, 0 to 100 scale
Outline: as §1

corn (Zea mays) = assay: as above; details: Zea mays, post-emergence, 240 h, Postemergence
Outline: as §1

[6] = test system: wheat (Triticum aestivum); assay: as above; details: Triticum aestivum, post-emergence, 240 h, Postemergence
Outline: as §1

[7] = test system: foxtail, giant (giant foxtail, Setaria faberii); assay: as above; details: Setaria faberi, 240 h; for pest or weed control at 125 g/ha: 125 g ai/ha; for pest or weed control at 500 g/ha: 500 g ai/ha, 0 to 100 scale
Outline: as §1

[8] = test system: galium (catchweed bedstraw, Galium aparine); assay: Test A greenhouse herbicide test, postemergence; details: Galium, post-emergence, 240 h
Outline: (§2)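 Visual injury score, 0 (no effect) to 100 (complete control), versus untreated controls roughly 10 d after postemergence spray; plants at one- to two-leaf stage, 2 to 10 cm tall, in loam soil and sand, kept in greenhouse.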

[9] = test system: blackgrass (Alopecurus myosuroides); assay: Test A greenhouse herbicide test, postemergence; details: Alopecurus myosuroides, post-emergence, 240 h
Outline: as §2

[10] = test system: oat, wild (wild oat, Avena fatua); assay: Test C greenhouse herbicide test, postemergence
Outline: (§3)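 Steps: pot plants in peat-based medium; spray postemergence at 1- to 4-leaf stage; hold in greenhouse 13 to 15 d; score visually against controls from 0 (no effect) to 100 (complete control).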

kochia (Kochia scoparia) [11] = assay: Test C greenhouse herbicide test, postemergence
Outline: as §3

[12] = Postemergence, 31 g ai/ha, 0 to 100 scale (0 no effect, 100 complete control)
[13] = Postemergence, 125 g ai/ha, scale 0 to 100, 0 is no effect, 100 is complete control
[14] = Postemergence, 250 g ai/ha, scale 0 to 100, 0 no effect, 100 complete control, 13 to 15 d
[15] = postemergence, 62 g ai/ha, scale 0 to 100, 0 no effect, 100 complete control

Compound: CC(=O)Oc1c(C)nn(C)c(=O)c1-c1c(C)oc2ccc(C)cc12 [Compound 14, 5-(acetyloxy)-4-(2,5-dimethyl-3-benzofuranyl)-2,6-dimethyl-3(2H)-pyridazinone]
- pest or weed control at 125 g/ha ([1]; post-emergence, Postemergence, visual rating after approx. 10 d, 0 to 100 scale (0 no effect, 100 complete control), read-out: Plant response rating, Ryegrass, Italian): 60%
- pest or weed control at 500 g/ha ([1]; post-emergence, Postemergence, 500 g ai/ha, 0 to 100 scale, 0 is no effect, 100 is complete control, read-out: Ryegrass, Italian plant response rating): 80%
- pest or weed control at 125 g/ha ([1]; pre-emergence, Preemergence, 0 to 100 scale where 0 is no effect and 100 is complete control, read-out: Ryegrass, Italian plant response rating): 30%
- pest or weed control at 125 g/ha ([2]; post-emergence, Postemergence, visual rating after approx. 10 d, 0 to 100 scale (0 no effect, 100 complete control), read-out: Plant response rating, Ragweed): 70%
- pest or weed control at 500 g/ha ([2]; post-emergence, Postemergence, 0 is no effect, 100 is complete control, read-out: Ragweed plant response rating): 90%
- pest or weed control at 125 g/ha ([2]; pre-emergence, Preemergence, 0 to 100 scale where 0 is no effect and 100 is complete control, read-out: Ragweed plant response rating): 0%
- pest or weed control at 500 g/ha ([2]; pre-emergence, Preemergence, 0 no effect, 100 complete control, read-out: Plant response rating, Ragweed): 30%
- pest or weed control at 125 g/ha ([3]; post-emergence, Postemergence, visual rating after approx. 10 d, 0 to 100 scale (0 no effect, 100 complete control), read-out: Plant response rating, Barnyardgrass): 10%
- pest or weed control at 500 g/ha ([3]; post-emergence, Postemergence, 0 is no effect, 100 is complete control, read-out: Barnyardgrass plant response rating): 70%
- pest or weed control at 125 g/ha ([3]; pre-emergence, Preemergence, 0 to 100 scale where 0 is no effect and 100 is complete control, read-out: Barnyardgrass plant response rating): 0%
- pest or weed control at 500 g/ha ([3]; pre-emergence, Preemergence, 0 no effect, 100 complete control, read-out: Plant response rating, Barnyardgrass): 40%
- pest or weed control at 125 g/ha (kochia (Kochia scoparia) [4]; post-emergence, Postemergence, visual rating after approx. 10 d, 0 to 100 scale (0 no effect, 100 complete control), read-out: Plant response rating, Kochia): 80%
- pest or weed control at 500 g/ha (kochia (Kochia scoparia) [4]; post-emergence, Postemergence, 0 is no effect, 100 is complete control, read-out: Kochia plant response rating): 90%
- pest or weed control at 125 g/ha (kochia (Kochia scoparia) [4]; pre-emergence, Preemergence, 0 to 100 scale where 0 is no effect and 100 is complete control, read-out: Kochia plant response rating): 10%
- pest or weed control at 500 g/ha (kochia (Kochia scoparia) [4]; pre-emergence, Preemergence, 0 no effect, 100 complete control, read-out: Plant response rating, Kochia): 50%
- pest or weed control at 125 g/ha ([5]; post-emergence, Postemergence, visual rating after approx. 10 d, 0 to 100 scale (0 no effect, 100 complete control), read-out: Plant response rating, Pigweed): 60%
- pest or weed control at 500 g/ha ([5]; post-emergence, Postemergence, 0 is no effect, 100 is complete control, read-out: Pigweed plant response rating): 80%
- pest or weed control at 125 g/ha ([5]; pre-emergence, Preemergence, 0 to 100 scale where 0 is no effect and 100 is complete control, read-out: Pigweed plant response rating): 70%
- pest or weed control at 500 g/ha ([5]; pre-emergence, Preemergence, 0 no effect, 100 complete control, read-out: Plant response rating, Pigweed): 90%
- Corn plant response rating (crop injury, 0 = no effect, 100 = complete kill) at 125 g/ha (corn (Zea mays); 125 g ai/ha, visual rating after approx. 10 d, 0 to 100 scale (0 no effect, 100 complete control)): 0%
- plant injury at 500 g/ha (corn (Zea mays); 500 g ai/ha, 0 to 100 scale, 0 is no effect, 100 is complete control, read-out: Corn plant response rating): 20%
- plant injury at 125 g/ha ([6]; 125 g ai/ha, visual rating after approx. 10 d, 0 to 100 scale (0 no effect, 100 complete control), read-out: Plant response rating, Wheat): 0%
- plant injury at 500 g/ha ([6]; 500 g ai/ha, 0 to 100 scale, 0 is no effect, 100 is complete control, read-out: Wheat plant response rating): 0%
- pest or weed control at 125 g/ha ([7]; post-emergence, Postemergence, visual rating after approx. 10 d, 0 to 100 scale (0 no effect, 100 complete control), read-out: Plant response rating, Foxtail, Giant): 10%
- pest or weed control at 500 g/ha ([7]; post-emergence, Postemergence, 0 is no effect, 100 is complete control, read-out: Foxtail, Giant plant response rating): 70%
- pest or weed control at 125 g/ha ([7]; pre-emergence, Preemergence, 0 to 100 scale where 0 is no effect and 100 is complete control, read-out: Foxtail, Giant plant response rating): 0%
- pest or weed control at 500 g/ha ([7]; pre-emergence, Preemergence, 0 no effect, 100 complete control, read-out: Plant response rating, Foxtail, Giant): 10%
- pest or weed control at 125 g/ha ([8]; 125 g ai/ha, visual rating after approx. 10 d, 0 to 100 scale (0 no effect, 100 complete control), read-out: Plant response rating, Galium): 80%
- pest or weed control at 500 g/ha ([8]; 500 g ai/ha, 0 to 100 scale, 0 is no effect, 100 is complete control, read-out: Galium plant response rating): 90%
- pest or weed control at 125 g/ha ([9]; 125 g ai/ha, visual rating after approx. 10 d, 0 to 100 scale (0 no effect, 100 complete control), read-out: Plant response rating, Blackgrass): 20%
- pest or weed control at 500 g/ha ([9]; 500 g ai/ha, 0 to 100 scale, 0 is no effect, 100 is complete control, read-out: Blackgrass plant response rating): 30%
- Oat, Wild plant response rating [10, 12]: 10
- Plant response rating, Oat, Wild [10, 13]: 40
- Plant response rating, Oat, Wild [10, 14]: 45
- Oat, Wild plant response rating [10, 15]: 30
- Kochia plant response rating (kochia (Kochia scoparia) [11]; [12]): 85
- Plant response rating, Kochia (kochia (Kochia scoparia) [11]; [13]): 90
- Plant response rating, Kochia (kochia (Kochia scoparia) [11]; [14]): 90
- Kochia plant response rating (kochia (Kochia scoparia) [11]; [15]): 85

From patent US10597388B2, “Pyridazinone herbicides” (FMC CORPORATION, priority 2014, dated 2020)
